# Results taken from publication PMC7044277 (Nature Communications, 2020).
# Where “and” joins values, the source holds several entries; their conditions need not be identical. Equal values may be shown once.
# What was measured:
# Assay type in all cases: cell-based
# [1] = target: T1, 320 non-olfactory GPCRs (Homo sapiens, UniProt Q92847)
# T1 construct: expressed in transfected cells; host or cells: HTLA cells
# [2] = target: 320 non-olfactory GPCRs (Homo sapiens, UniProt P21554)
# [3] = target: 320 non-olfactory GPCRs (Homo sapiens, UniProt O43193); conditions: receptor MLNR; replicate values, Fig_4g
# Chain of 320 non-olfactory GPCRs (Homo sapiens, UniProt O43193) (O43193 whole entry): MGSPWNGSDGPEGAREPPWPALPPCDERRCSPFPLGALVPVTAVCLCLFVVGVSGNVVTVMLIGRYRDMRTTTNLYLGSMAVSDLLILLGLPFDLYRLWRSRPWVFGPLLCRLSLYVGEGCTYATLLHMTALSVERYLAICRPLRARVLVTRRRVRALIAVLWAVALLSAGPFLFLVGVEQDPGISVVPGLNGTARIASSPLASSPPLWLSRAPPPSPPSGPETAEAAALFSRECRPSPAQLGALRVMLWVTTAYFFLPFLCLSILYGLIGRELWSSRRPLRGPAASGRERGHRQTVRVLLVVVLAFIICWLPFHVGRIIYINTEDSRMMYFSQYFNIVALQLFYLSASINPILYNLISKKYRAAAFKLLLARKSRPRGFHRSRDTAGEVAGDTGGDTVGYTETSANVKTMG
# [4] = target: 320 non-olfactory GPCRs (Homo sapiens, UniProt P32238)
# Chain of 320 non-olfactory GPCRs (Homo sapiens, UniProt P32238) (P32238 whole entry): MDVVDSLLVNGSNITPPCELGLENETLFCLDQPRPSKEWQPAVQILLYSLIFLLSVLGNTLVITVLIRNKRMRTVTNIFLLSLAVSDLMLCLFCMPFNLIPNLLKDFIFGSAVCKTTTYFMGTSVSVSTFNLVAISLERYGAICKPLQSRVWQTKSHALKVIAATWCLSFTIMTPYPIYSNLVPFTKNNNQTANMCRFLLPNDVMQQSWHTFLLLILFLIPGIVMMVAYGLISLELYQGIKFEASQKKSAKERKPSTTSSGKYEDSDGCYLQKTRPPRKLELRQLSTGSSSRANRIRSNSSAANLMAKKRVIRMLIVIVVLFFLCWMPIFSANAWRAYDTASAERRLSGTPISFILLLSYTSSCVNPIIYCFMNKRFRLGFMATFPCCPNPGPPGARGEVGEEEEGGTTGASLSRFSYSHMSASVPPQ
# 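For Fold of Basal in this document: compound tested at 1 µM final concentration.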
# 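For GPCRome agonism screen response in this document: fold over basal response of each receptor without drug.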
# T1 sequence (Q92847 whole entry): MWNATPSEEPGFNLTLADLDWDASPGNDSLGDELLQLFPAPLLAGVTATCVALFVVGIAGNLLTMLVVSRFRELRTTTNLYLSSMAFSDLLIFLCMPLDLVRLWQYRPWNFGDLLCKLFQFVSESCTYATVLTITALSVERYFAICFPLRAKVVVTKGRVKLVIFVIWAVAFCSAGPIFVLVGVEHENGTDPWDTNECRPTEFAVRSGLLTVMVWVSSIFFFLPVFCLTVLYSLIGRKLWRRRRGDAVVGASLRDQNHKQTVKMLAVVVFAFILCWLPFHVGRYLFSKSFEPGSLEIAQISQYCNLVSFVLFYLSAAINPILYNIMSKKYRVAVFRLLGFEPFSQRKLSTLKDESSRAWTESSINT
# Chain of 320 non-olfactory GPCRs (Homo sapiens, UniProt P21554) (P21554 whole entry): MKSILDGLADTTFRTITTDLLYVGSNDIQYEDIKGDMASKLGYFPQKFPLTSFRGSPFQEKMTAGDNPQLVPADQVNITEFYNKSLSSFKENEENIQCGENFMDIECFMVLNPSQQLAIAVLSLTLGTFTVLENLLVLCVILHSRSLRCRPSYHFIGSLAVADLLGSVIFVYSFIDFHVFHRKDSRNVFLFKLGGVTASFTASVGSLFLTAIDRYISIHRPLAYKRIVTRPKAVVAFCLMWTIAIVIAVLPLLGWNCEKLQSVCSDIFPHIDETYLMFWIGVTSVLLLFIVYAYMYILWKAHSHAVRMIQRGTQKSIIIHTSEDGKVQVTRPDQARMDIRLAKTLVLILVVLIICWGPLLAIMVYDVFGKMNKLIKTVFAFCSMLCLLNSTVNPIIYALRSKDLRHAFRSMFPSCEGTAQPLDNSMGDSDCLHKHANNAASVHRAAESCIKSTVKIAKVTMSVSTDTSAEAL
smiles,measurement,setting,value
CCOc1cccc2cc(C(C)NCC3(O)CCCCC3)oc12 (stereo not shown) [O4LE6],Fold of Basal,[1],0.8362 and 0.6901 and 0.8172 and 0.8114
same,Fold of Basal,[2],1.089 and 1.197 and 0.9218 and 0.8315
same,GPCRome agonism screen response,[3],1.48 and 1.279 and 0.7077 and 1.039
same,Fold of Basal,[4],0.8879 and 0.8535 and 0.8133 and 1.029
